Reference: PMC10035947, “Development of novel anilinoquinazoline-based carboxylic acids as non-classical carbonic anhydrase IX and XII inhibitors” (Journal of Enzyme Inhibition and Medicinal Chemistry, 2023)

Key:
786-0 = experiment: NCI SRB assay; type: cell-based, human; conditions: for GI%: 786-0, 10 μM; for Growth Percent: 786-0, 1.00E-5 Molar
OVCAR-4 = experiment: NCI SRB assay; type: cell-based, human; conditions: for GI%: OVCAR-4, 10 μM; for Growth Percent: OVCAR-4, 1.00E-5 Molar
OVCAR-8 = experiment: NCI SRB assay; type: cell-based, human; conditions: for GI%: OVCAR-8, 10 μM; for Growth Percent: OVCAR-8, 1.00E-5 Molar
LOX IMVI = experiment: NCI SRB assay; type: cell-based, human; conditions: for GI%: 10 μM; for Growth Percent: 1.00E-5 Molar
K-562 = experiment: NCI SRB assay; type: cell-based, human; conditions: for GI%: K-562, 10 μM; for Growth Percent: K-562, 1.00E-5 Molar
KM12 = experiment: NCI SRB assay; type: cell-based, human; conditions: for GI%: KM12, 10 μM; for Growth Percent: KM12, 1.00E-5 Molar
T-47D = experiment: NCI SRB assay; type: cell-based, human; conditions: for GI%: 10 μM; for Growth Percent: 1.00E-5 Molar
HOP-62 = experiment: NCI SRB assay; type: cell-based, human; conditions: for GI%: HOP-62, 10 μM; for Growth Percent: HOP-62, 1.00E-5 Molar
MOLT-4 = experiment: NCI SRB assay; type: cell-based, human; conditions: for GI%: MOLT-4, 10 μM; for Growth Percent: MOLT-4, 1.00E-5 Molar
SK-MEL-2 = experiment: NCI SRB assay; type: cell-based, human; conditions: for GI%: SK-MEL-2, 10 μM; for Growth Percent: SK-MEL-2, 1.00E-5 Molar
MCF7 = experiment: NCI SRB assay; type: cell-based, human; conditions: for GI%: MCF7, 10 μM; for Growth Percent: MCF7, 1.00E-5 Molar
SNB-75 = experiment: NCI SRB assay; type: cell-based, human; conditions: for GI%: SNB-75, 10 μM; for Growth Percent: SNB-75, 1.00E-5 Molar
NCI-H460 = experiment: NCI SRB assay; type: cell-based, human; conditions: for GI%: NCI-H460, 10 μM; for Growth Percent: NCI-H460, 1.00E-5 Molar
SN12C = experiment: NCI SRB assay; type: cell-based, human; conditions: SN12C; for GI%: 10 μM; for Growth Percent: 1.00E-5 Molar
HCT-116 = experiment: NCI SRB assay; type: cell-based, human; conditions: for GI%: HCT-116, 10 μM; for Growth Percent: HCT-116, 1.00E-5 Molar
NCI-H23 = experiment: NCI SRB assay; type: cell-based, human; conditions: for Growth Percent: NCI-H23, 1.00E-5 Molar
SNB-19 = experiment: NCI SRB assay; type: cell-based, human; conditions: for GI%: SNB-19, 10 μM; for Growth Percent: SNB-19, 1.00E-5 Molar
CCRF-CEM = experiment: NCI SRB assay; type: cell-based, human; conditions: for GI%: 10 μM; for Growth Percent: 1.00E-5 Molar
BT-549 = experiment: NCI SRB assay; type: cell-based, human; conditions: for GI%: BT-549, 10 μM; for Growth Percent: BT-549, 1.00E-5 Molar
HT29 = experiment: NCI SRB assay; type: cell-based, human; conditions: for GI%: HT29, 10 μM; for Growth Percent: HT29, 1.00E-5 Molar
SK-OV-3 = experiment: NCI SRB assay; type: cell-based, human; conditions: for GI%: SK-OV-3, 10 μM; for Growth Percent: SK-OV-3, 1.00E-5 Molar
ACHN = experiment: NCI SRB assay; type: cell-based, human; conditions: for GI%: 10 μM; for Growth Percent: 1.00E-5 Molar
SF-295 = experiment: NCI SRB assay; type: cell-based, human; conditions: for GI%: SF-295, 10 μM; for Growth Percent: SF-295, 1.00E-5 Molar
TK-10 = experiment: NCI SRB assay; type: cell-based, human; conditions: for GI%: TK-10, 10 μM; for Growth Percent: TK-10, 1.00E-5 Molar
SF-268 = experiment: NCI SRB assay; type: cell-based, human; conditions: for GI%: SF-268, 10 μM; for Growth Percent: SF-268, 1.00E-5 Molar
[1] = test system: 59 human cancer cell lines representing nine tumour subpanels; experiment: NCI SRB assay, panel and subpanel summaries; conditions: all cell lines; for Mean GI %: 10 μM; for Mean Growth Percent: 1.00E-5 Molar
NCI-H322M = experiment: NCI SRB assay; type: cell-based, human; conditions: for GI%: 10 μM; for Growth Percent: 1.00E-5 Molar
EKVX = experiment: NCI SRB assay; type: cell-based, human; conditions: for GI%: 10 μM; for Growth Percent: 1.00E-5 Molar
NCI-H226 = experiment: NCI SRB assay; type: cell-based, human; conditions: for GI%: NCI-H226, 10 μM; for Growth Percent: NCI-H226, 1.00E-5 Molar

Cc1ccc(-c2nc(Nc3cccc(C(=O)O)c3)c3ccccc3n2)cc1 [7b, 3-((2-(p-Tolyl)quinazolin-4-yl)amino)benzoic acid]
GI% (786-0): 24%
Growth Percent (786-0): 76.25%
GI% (OVCAR-4): 23%
Growth Percent (OVCAR-4): 77.91%
GI% (OVCAR-8): – (Only GI% higher than 20% are shown)
Growth Percent (OVCAR-8): 91.56%
GI% (LOX IMVI): – (Only GI% higher than 20% are shown)
Growth Percent (LOX IMVI): 81.15%
GI% (K-562): 20%
Growth Percent (K-562): 80.06%
GI% (KM12): 32%
Growth Percent (KM12): 68.03%
GI% (T-47D): – (Only GI% higher than 20% are shown)
Growth Percent (T-47D): 83.81%
GI% (HOP-62): – (Only GI% higher than 20% are shown)
Growth Percent (HOP-62): 84.19%
GI% (MOLT-4): – (Only GI% higher than 20% are shown)
Growth Percent (MOLT-4): 89.24%
GI% (SK-MEL-2): – (Only GI% higher than 20% are shown)
Growth Percent (SK-MEL-2): 112.04%
GI% (MCF7): – (Only GI% higher than 20% are shown)
Growth Percent (MCF7): 85.28%
GI% (SNB-75): – (Only GI% higher than 20% are shown)
Growth Percent (SNB-75): 91.06%
GI% (NCI-H460): – (Only GI% higher than 20% are shown)
Growth Percent (NCI-H460): 97.53%
GI% (SN12C): 23%
Growth Percent (SN12C): 76.64%
GI% (HCT-116): 26%
Growth Percent (HCT-116): 74.42%
GI% (NCI-H23; NCI-H23, 10 μM): – (Only GI% higher than 20% are shown)
Growth Percent (NCI-H23): 95.42%
GI% (SNB-19): 28%
Growth Percent (SNB-19): 71.76%
GI% (CCRF-CEM): 21%
Growth Percent (CCRF-CEM): 78.66%
GI% (BT-549): – (Only GI% higher than 20% are shown)
Growth Percent (BT-549): 101.46%
GI% (HT29): – (Only GI% higher than 20% are shown)
Growth Percent (HT29): 105.90%
GI% (SK-OV-3): – (Only GI% higher than 20% are shown)
Growth Percent (SK-OV-3): 89.56%
GI% (ACHN): 24%
Growth Percent (ACHN): 76.34%
GI% (SF-295): 34%
Growth Percent (SF-295): 65.90%
GI% (TK-10): – (Only GI% higher than 20% are shown)
Growth Percent (TK-10): 115.15%
GI% (SF-268): 31%
Growth Percent (SF-268): 69.32%
Mean GI % [1]: 14%
Mean Growth Percent [1]: 86.13%
GI% (NCI-H322M): – (Only GI% higher than 20% are shown)
Growth Percent (NCI-H322M): 99.74%
GI% (EKVX): 41%
Growth Percent (EKVX): 58.70%
GI% (NCI-H226): 25%
Growth Percent (NCI-H226): 75.32%

Cc1cccc(-c2nc(Nc3ccc(C(=O)O)cc3)c3ccccc3n2)c1 [8a, 4-((2-(m-Tolyl)quinazolin-4-yl)amino)benzoic acid]
GI% (786-0): 29%
Growth Percent (786-0): 70.77%
GI% (OVCAR-4): – (Only GI% higher than 20% are shown)
Growth Percent (OVCAR-4): 83.42%
GI% (OVCAR-8): – (Only GI% higher than 20% are shown)
Growth Percent (OVCAR-8): 82.44%
GI% (LOX IMVI): 29%
Growth Percent (LOX IMVI): 71.49%
GI% (K-562): – (Only GI% higher than 20% are shown)
Growth Percent (K-562): 80.44%
GI% (KM12): 23%
Growth Percent (KM12): 76.63%
GI% (T-47D): 22%
Growth Percent (T-47D): 77.59%
GI% (HOP-62): – (Only GI% higher than 20% are shown)
Growth Percent (HOP-62): 95.14%
GI% (MOLT-4): 22%
Growth Percent (MOLT-4): 78.39%
GI% (SK-MEL-2): – (Only GI% higher than 20% are shown)
Growth Percent (SK-MEL-2): 123.11%
GI% (MCF7): – (Only GI% higher than 20% are shown)
Growth Percent (MCF7): 88.63%
GI% (SNB-75): – (Only GI% higher than 20% are shown)
Growth Percent (SNB-75): 100.40%
GI% (NCI-H460): 22%
Growth Percent (NCI-H460): 78.01%
GI% (SN12C): 42%
Growth Percent (SN12C): 58.07%
GI% (HCT-116): – (Only GI% higher than 20% are shown)
Growth Percent (HCT-116): 81.80%
Growth Percent (NCI-H23): 99.04%
GI% (SNB-19): 33%
Growth Percent (SNB-19): 67.24%
GI% (CCRF-CEM): 25%
Growth Percent (CCRF-CEM): 74.58%
GI% (BT-549): 34%
Growth Percent (BT-549): 66.04%
GI% (HT29): – (Only GI% higher than 20% are shown)
Growth Percent (HT29): 91.72%
GI% (SK-OV-3): – (Only GI% higher than 20% are shown)
Growth Percent (SK-OV-3): 108.70%
GI% (ACHN): – (Only GI% higher than 20% are shown)
Growth Percent (ACHN): 85.41%
GI% (SF-295): 36%
Growth Percent (SF-295): 63.92%
GI% (TK-10): – (Only GI% higher than 20% are shown)
Growth Percent (TK-10): 91.50%
GI% (SF-268): 37%
Growth Percent (SF-268): 62.51%
Mean GI % [1]: 16%
Mean Growth Percent [1]: 84.51%
GI% (NCI-H322M): – (Only GI% higher than 20% are shown)
Growth Percent (NCI-H322M): 103.28%
GI% (EKVX): – (Only GI% higher than 20% are shown)
Growth Percent (EKVX): 82.93%
GI% (NCI-H226): 52%
Growth Percent (NCI-H226): 47.62%
